Results: patent US6337397B1, “Pyrimidine derivatives and their salts, useful for making benzoxazepine derivatives” (Suntory Limited, priority 1995, dated 2002)
Read-outs that look alike come from different tables or passages of the source.

Columns and labels:
male Wistar rats = test: Anticonflict action, NaCl-Lick conflict method; assay type: in vivo; settings: Rattus norvegicus, po, 1 hour before the test; number of licks in 5 minutes of 2% saline; rats deprived of water for 48 hours; read-out: Minimum effective dosage
Protocol: The anticonflict action of the compounds of the general formulae (I), (II), and (III) was evaluated in accordance with the NaCl-Lick conflict method of Tanga et al. (Pharmacol., Biochem., Behav., vol. 32, pp. 773-776, 1989). That is, six-week old male Wistar rats in groups of six to 10 were deprived of water for 48 hours and placed in an experimental apparatus placed in a soundproof box (apparatus made of acrylic resin, 20×20×30 cm, provided with a drinking outlet having a diameter of 1 cm at height of 8 cm from the floor, designed to be able to measure the number of drops per unit hour by a drinkometer), and the anticonflict action of the medicament was evaluated using as an indicator the number of drops (number of licks) in 5 minutes from the start of drinking of 2% saline. The tested medicament was orally administered in an amount of 0.2 ml/100 g body weight 1 hour before the start of the test.

dopamine D2 receptor = target: T1, dopamine D2 receptor (Rattus norvegicus, UniProt P61169); test: Affinity with dopamine D2 receptor, [3H]Raclopride binding; parameters: species or system male Wistar rats; settings: 1.0 nM [3H]Raclopride, rat corpus striatum preparation, 25° C., 60 minutes
T1 construct: the corpus striatums excised from male Wistar rats were homogenized; from tissue; host or cells: rat corpus striatum membrane homogenate
T1 sequence (P61169 whole entry): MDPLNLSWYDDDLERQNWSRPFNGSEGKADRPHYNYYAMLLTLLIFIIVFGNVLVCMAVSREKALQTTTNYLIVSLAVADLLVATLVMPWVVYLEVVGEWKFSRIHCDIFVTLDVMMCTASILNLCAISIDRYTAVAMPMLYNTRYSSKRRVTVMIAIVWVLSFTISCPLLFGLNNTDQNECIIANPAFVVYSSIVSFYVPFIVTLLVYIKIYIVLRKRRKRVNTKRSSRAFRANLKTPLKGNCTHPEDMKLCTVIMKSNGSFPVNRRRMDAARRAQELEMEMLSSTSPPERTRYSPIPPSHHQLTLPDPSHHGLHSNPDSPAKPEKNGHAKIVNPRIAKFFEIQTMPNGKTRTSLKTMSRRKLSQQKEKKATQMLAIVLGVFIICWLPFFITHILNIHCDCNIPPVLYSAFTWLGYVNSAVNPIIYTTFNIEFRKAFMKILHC
Protocol: The affinity of the compounds of the general formulas (I), (II), and (III) with a dopamine D2 receptor was evaluated in accordance with the method of Kakohler et al. (Biochem. Pharmacol., vol. 34, pp. 2251-2259, 1985). That is, the corpus striatums excised from male Wistar rats were homogenized with the addition of 120 mM sodium chloride, 5 mM potassium chloride, 2 mM calcium chloride, 1 mM magnesium chloride, and 0.01% ascorbic acid contained in 50 mM tris-phosphate buffer (pH 7.7). The homogenate was centrifuged at […] and 35000×g for 10 minutes. The same buffer was added to the resultant precipitate,then this was homogenized again and was similarly centrifuged to obtain the precipitate. The same buffer was added to this precipitate which was then again homogenized to prepare the dopamine D2 receptor.
For the binding experiment, use was made of 1.0 nM of [3H]3,5-dichloro-N-[(1-ethyl-2-pyrrolidinyl)methyl]-6-hydroxy-o-anisamide (Raclopride), various concentrations of test samples were added to a system of 0.34 mg/ml of protein or a total of 0.25 ml, incubation was performed at 25° C. for 60 minutes, then the radioactivity was measured in the same way as in the Evaluation Example 1 to find the degree of binding.
The 50% inhibiting concentration of binding affinity (IC50) was calculated from the degrees of binding at various concentrations of the added samples. […] The IC50 values of typical compounds are shown together with the IC50 values for the serotonin receptor.

[1] = target: T2, serotonin 5-HT1A receptor (Rattus norvegicus, UniProt P19327); test: Affinity with serotonin receptor, [3H]8-OH-DPAT binding; parameters: species or system male Wistar rats; settings: for D2/5-HT1A: ratio of IC50 (D2) to IC50 (5-HT1A)
T2 construct: the hippocampuses extracted from male Wistar rats were homogenized; from tissue; host or cells: rat hippocampus membrane homogenate
T2 sequence (P19327 1-422): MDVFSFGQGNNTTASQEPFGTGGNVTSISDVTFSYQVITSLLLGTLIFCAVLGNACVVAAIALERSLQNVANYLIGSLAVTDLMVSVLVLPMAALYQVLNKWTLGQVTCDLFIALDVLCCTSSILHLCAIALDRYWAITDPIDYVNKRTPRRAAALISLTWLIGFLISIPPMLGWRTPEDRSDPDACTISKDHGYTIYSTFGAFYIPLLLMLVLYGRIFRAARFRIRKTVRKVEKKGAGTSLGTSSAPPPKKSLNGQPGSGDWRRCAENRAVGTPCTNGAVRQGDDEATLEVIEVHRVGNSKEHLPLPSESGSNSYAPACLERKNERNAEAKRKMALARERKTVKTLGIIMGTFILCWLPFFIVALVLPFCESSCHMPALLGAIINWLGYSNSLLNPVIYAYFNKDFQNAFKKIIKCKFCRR
Protocol: The affinity of the compounds of the general formulas (I), (II), and (III) with a serotonin receptor was evaluated in accordance with the method of S. T. Peuroutka et al. (J. Neurochem., vol. 47, pp. 529-540, 1986). That is, the hippocampuses extracted from male Wistar rats were homogenized while adding 50 mM tris-phosphate buffer (pH 7.7). The homogenate was centrifuged at […] and 40000×g for 10 minutes. The same buffer was added to the obtained precipitate, then this was homogenized again and was similarly centrifuged to obtain the precipitate. This homogenization-centrifugation operation was repeated two times to obtain a final precipitate to which was then added 10 uM of N-methyl-N-2-propynylbenzylamine (Pargyline), 4 mM of calcium chloride, and 0.1% ascorbic acid contained in a 50 mM tris-phosphate buffer (ph 7.7). This was then homogenized to prepare the serotonin receptor.
For the binding experiment, 0.4 nM of [3H]2-di-n-propylamino-8-hydroxy-1,2,3,4-tetrahydronapthalene (8-DPAT; 8-hydroxy-N,N-dipropyl-2-aminotetetrilin) was used, various concentrations of test samples were added to a system of 0.25 mg/ml of protein or a total of 0.25 ml, and these were incubated at 25° C. for 30 minutes. A Whatman GF/C filter was used to filter each of the reaction solutions, then the filter was washed by 20 mM tris-phosphate buffer (pH 7.7). The serotonin receptor was trapped by the filter and the radio activity of the 8-OH-DAPT bonded to it was measured to find the degree of binding. The 50% inhibiting concentration of binding affinity (IC50) was calculated from the degrees of binding in the various sample concentrations. […] The IC50 values of typical compounds are shown together with the IC50 values with respect to the dopamine D2 receptor.

Wistar male rats = test: Ischemic brain tissue damage, transient right middle cerebral artery occlusion (MCAO) model; assay type: in vivo; settings: Rattus norvegicus, sc, 240 h; s.c., immediately after occlusion; 60 minutes occlusion; brain tissue damage 10 days after restart of blood flow (number of benzodiazepine bindings); read-out: Minimum effective dosage
Protocol: The evaluation of the efficacy on ischemic brain damage of the compounds of the general formulae (I), (II), and (III) was performed using the transient right middle cerebral artery occlusion (MCAO) model of Koizumi et al. (Jap. J. Stroke, vol. 8, pp. 1 to 8, 1986). That is, 10 to 11 week old Wistar male rats were used and the right middle cerebral artery was temporarily obstructed for 60 minutes. 10 days after the restart of the blood flow, the brains were excised and the degree of brain tissue damage of the cerebral cortex and corpus striatum of the obstructed side were evaluated by the damage marker of the number of benzodiazepine bindings. The tested drugs were dissolved in physiological saline and administered subcutaneously at the backs of the rats immediately after the right middle cerebral artery occlusion. As a control, physiological saline of […] body weight was similarly administered.

[2] = 0.4 nM [3H]8-OH-DPAT, rat hippocampus preparation, 25° C., 30 minutes, read-out: IC50 (5-HT1A)

Row | IC50 (dopamine D2 receptor) [nM] | IC50 [1, 2] [nM] | D2/5-HT1A [1] | SMILES | minimal effective dose (male Wistar rats) [mg/kg] | minimal effective dose (Wistar male rats) [mg/kg] | IC50 [1] [nM]
1 | – | – | – | CCC1=COc2ccccc2C(=O)N1CCCCN1CCN(c2ccccn2)CC1 [Example 36, 4,5-dihydro-3-ethyl-4-(4-(4-(2-pyridyl)piperazin-1-yl)butyl)-1,4-benzoxazepin-5-one] | 30 | – | –
2 | 266 | 1.7 | 156 | CC1=COc2ccc(F)cc2C(=O)N1CCCCN1CCN(c2cccc(Cl)n2)CC1 [Example 41, 4-(4-(4-(2-chloropyridin-6-yl)piperazin-1-yl)butyl)-4,5-dihydro-7-fluoro-3-methyl-1,4-benzoxazenin-5-one] | 10 | – | –
3 | 51 | 0.77 | 67 | O=C1c2ccccc2OC=C(Cl)N1CCCCN1CCN(c2ccccn2)CC1 [Example 46, 3-chloro-4,5-dihydro-4-(4-(4-(2-pyridyl)piperazin-1-yl)butyl)-1,4-benzoxazepin-5-one] | 10 | 0.3 | –
4 | 1390 | 3.8 | 366 | O=C1c2ccccc2OC=C(Cl)N1CCCCN1CCN(c2ncnc3ccccc23)CC1 [Example 47, 3-chloro-4,5-dihydro-4-(4-(4-(4-quinazolyl)piperazin-1-yl)butyl)-1,4-benzoxazepin-5-one] | – | – | –
5 | 233 | 1.2 | 194 | O=C1c2ccc(Cl)cc2OC=C(Cl)N1CCCCN1CCN(c2ccccn2)CC1 [Example 48, 3,8-dichloro-4,5-dihydro-4-(4-(4-(2-pyridyl)piperazin-1-yl)butyl)-1,4-benzoxazepin-5-one] | 30 | 1 | –
6 | 405 | 0.88 | 460 | Cc1ccc2c(c1)C(=O)N(CCCCN1CCN(c3ncccn3)CC1)C(Cl)=CO2 [Example 49, 3-chloro-4,5-dihydro-7-methyl-4-(4-(4-(2-pyrimidinyl)-piperazin-1-yl)butyl)-1,4-benzoxazepin-5-one] | – | – | –
7 | – | – | – | CC1=COc2ccccc2C(=O)N1CCCCN1CCC(c2ncccn2)CC1 [Example 54, 4,5-dihydro-3-methyl-4-(4-(4-(2-pyrimidinyl)piperidin-1-yl)butyl)-1,4-benzoxazepin-5-one] | 10 | – | –
8 | 1800 | 5.81 | 310 | O=C1c2ccccc2OC=C(Cl)N1CCCCN1CCC(c2ncccn2)CC1 [Example 57, 3-chloro-4,5-dihydro-4-(4-(4-(2-pyrimidinyl)piperidin-1-yl)butyl)-1,4-benzoxazepin-5-one] | – | – | –
9 | 1280 | 1.11 | 1153 | O=C1c2ccc(Cl)cc2OC=C(Cl)N1CCCCN1CCC(c2ncccn2)CC1 [Example 60, 3,8-dichloro-4,5-dihydro-4-(4-(4-(2-pyrimidinyl)piperidin-1-yl)butyl)-1,4-benzoxazepin-5-one] | – | 1 | –
10 | 359 | 0.44 | 816 | O=C1c2ccc(Cl)cc2OC=C(Cl)N1CCCCN1CCC(c2ccccn2)CC1 [Example 67, 3,8-dichloro-4,5-dihydro-4-(4-(4-(2-pyridyl)piperidin-1-yl)butyl)-1,4-benzoxazepin-5-one] | – | – | –
11 | – | – | – | CC1=COc2ccccc2C(=O)N1CCCCN1CC=C(c2ccccn2)CC1 [Example 84, 4,5-dihydro-3-methyl-4-(4-(4-(2-pyridyl)-1,2,5,6-tetrahydropyridin-1-yl)butyl)-1,4-benzoxazepin-5-one] | – | 0.3 | –

Row | SMILES | IC50 (dopamine D2 receptor) [nM] | IC50 [1, 2] [nM] | D2/5-HT1A [1] | minimal effective dose (male Wistar rats) [mg/kg] | minimal effective dose (Wistar male rats) [mg/kg] | IC50 [1] [nM]
12 | CC1=COc2ccccc2C(=O)N1CCCCN1CC=C(c2ncccn2)CC1 [Example 53, 4,5-dihydro-3-methyl-4-(4-(4-(2-pyrimidinyl)-1,2,5,6-tetrahydropyridin-1-yl)butyl)-1,4-benzoxazepin-5-one] | 979 | – | 89 | – | – | 11
13 | CC1=COc2ccc(F)cc2C(=O)N1CCCCN1CC=C(c2ncccn2)CC1 [Example 55, 4,5-dihydro-7-fluoro-3-methyl-4-(4-(4-(2-pyrimidinyl)-1,2,5,6-tetrahydropyridin-1-yl)butyl)-1,4-benzoxazepin-5-one] | 1250 | – | 96 | – | – | 13
14 | O=C1c2ccc(Cl)cc2OC=C(Cl)N1CCCCN1CC=C(c2ncccn2)CC1 [Example 59, 3,8-dichloro-4,5-dihydro-4-(4-(4-(2-pyrimidinyl)-1,2,5,6-tetrahydropyridin-1-yl)butyl)-1,4-benzoxazepin-5-one] | 341 | – | 525 | – | 1 | 0.65
15 | COc1ccc2c(c1)OC=C(Cl)N(CCCCN1CC=C(c3ncccn3)CC1)C2=O [Example 61, 3-chloro-4,5-dihydro-8-methoxy-4-(4-(4-(2-pyrimdinyl)-1,2,5,6-tetrahydropyridin-1-yl)butyl)-1,4-benzoxazepin-5-one] | 256 | – | 376 | – | 1 | 0.68
16 | O=C1c2ccc(Cl)cc2OC=C(Cl)N1CCCCN1CC=C(c2ccccn2)CC1 [Example 66, 3,8-dichloro-4,5-dihydro-4-(4-(4-(2-pyridyl)-1,2,5,6-tetrahydropyridin-1-yl)butyl)-1,4-benzoxazepin-5-one] | 128 | – | 221 | – | – | 0.58
17 | CC1=COc2ccc(C)cc2C(=O)N1CCCCN1CC=C(c2ccccn2)CC1 [Example 74, 4,5-dihydro-3,7-dimethyl-4-(4-(4-(2-pyridyl)-1,2,5,6-tetrahydropyridin-1-yl)butyl)-1,4-benzoxazepin-5-one] | 338 | – | 77 | – | – | 4.41
